Measurements from patent US6297250A, “Pyrimidopyrimidine compounds” (Newcastle University Ventures Limited, priority 1997, dated 2001).
Several values for one entry are separate records, joined by “and”; a condition that tells them apart may be missing. Equal values may be shown once. Read-outs that look alike come from different tables or passages of the source.

Columns and labels:
A549 [1] = conditions: earlier experiments; cited from earlier work
MCF7 [2] = conditions: earlier experiments; cited from earlier work
L1210 cells = assay: Nucleoside transport inhibition assay: inhibition of 3H-thymidine uptake, with or without AGP or HSA; format: cell-based, murine; conditions: for inhibition at 1 µM: L1210, 1 μM compound; for inhibition at 10 µM: L1210, 10 μM compound; for Effect of AGP on the inhibition of thymidine uptake: in words; for inhibition at 100 µM: L1210, 100 μM compound
Description: In vitro activity. […] For testing the compounds an established nucleoside transport assay involving measurement of thymidine uptake was adapted. Murine leukaemia L1210 cells were used in this assay as their nucleoside transport characteristics are well known. This assay for measuring thymidine uptake used a modification of the rapid mixing technique of Wohleheuter, R. […] Materials used included a transport buffer comprising 130 mM NaCl, 5 mM KC1, 1 mM MgCl, 5 mM NaH2 PO4, 10 mM glucose and 10 mM HEPES. This buffer was made up as sterile 5× concentrate and reconstituted in distilled water and adjusted to pH 7.4 immediately prior to carrying out the assay. […] The supernatant was aspirated and the cells were washed with ice-cold transport buffer and centrifuged again at 1000 rpm for 5 minutes at 4° C. The supernatant was removed and the cells were resuspended in ice-cold transport buffer to give a final cell density of 2-4×10^7 cells/mi. Cells were left on ice for 30 minutes recovery prior to starting the assay. […] The suspension was mixed well and 100 μl was layered onto 150 μl silicone oil (9:11 Dow Corning 556 (Sp.Gr. 0.98):Dow Corning 550 (Sp.Gr. 1.068) (final Sp.Gr. 1.028) overlaying 50 μl 3M KOH in 6 replicate 0.5 ml microfuge tubes. […] The tubes were immediately transferred to a microfuge (Eppendorf) and spun at 12000 rpm for 2 minutes to pellet the cells through the oil and into the KOH. The tubes were capped and the cells left to solubilise in the KOH for 1 hour. Cell number and viability for each run was determined by haemocytometer counting using trypan blue exclusion. […] The tubes were capped and cut in the oil layer such that the bottom portion (cells solubilised in KOH) fell into a 20 ml scintillation vial. 1 ml 0.25M acetic acid followed by 1 ml air was injected into the tube using a 2 ml syringe and 23-gauge needle to disperse and neutralise the KOH-solubilisedcells. 10 ml of Optiphase HiSafe™ scintillant was added and the vials capped and shaken. […] The [^14 C]:[^3 H] ratio was used to calculate the amount of non-transported contaminating [^3 H]thymidine in the extracellular space.

MCF7 [3] = assay: Prevention of hypoxanthine rescue from antifolate growth inhibition (sulphorhodamine B); format: cell-based; conditions: 3 μM NU3076, 10 μM hypoxanthine
Description: (§1) For example, in investigating the compound NU3076, two lung cancer cell lines: A549 and COR L23 and two breast cancer cell lines MCF7 and MDA MB231 were selected for study. All cell lines were adapted to growth in dialysed serum as previously referred to. […] Cells were exposed to varying concentrations of LY309887 in the presence or absence of 10 μM hypoxanthine, with or without 3 μM NU3076. At the end of the exposure period the cells were fixed and stained with sulphorhodamine B. Hypoxanthine protected all the cell lines from LY309887 growth inhibition.

A549 [4] = assay: as above; format: cell-based; conditions: 3 μM NU3076, 10 μM hypoxanthine
Description: as §1

[5] = Mus musculus, +5 mg/ml AGP vs no AGP, read-out: % Reduction (of inhibition by AGP)
[6] = Mus musculus, +5 mg/ml AGP, read-out: % Inhibition of 3H-thymidine uptake, +5 mg/ml AGP
[7] = Mus musculus, no AGP, read-out: % Inhibition of 3H-thymidine uptake, No AGP
[8] = Mus musculus, no AGP, 5% DMSO, read-out: % Inhibition of 3H-thymidine uptake, No AGP (5% DMSO)

OCCN(CCO)c1nc(N2CCCCC2)c2nc(N(CCO)CCO)nc(N3CCCCC3)c2n1 [NU3003, 2,6-bis(diethanolamino)-4,8-dipiperidinopyrimidopyrimidine, reference compound]
Block of hypoxanthine rescue from lometerxol growth inhibition (A549 [1]): blocked hypoxantine rescue
Block of hypoxanthine rescue from lometerxol growth inhibition (MCF7 [2]): blocked hypoxantine rescue

COc1ccc(CNc2nc(N(CCO)CCO)nc3c(NCc4ccc(OC)cc4)nc(N(CCO)CCO)nc23)cc1 [NU3076, 2,6-bis (Diethanolamino)-4,8-di[(4'-methoxybenzyl)amino]pyrimidopyrimidine]
% Inhibition of 3H-thymidine uptake, No AGP (L1210 cells; 1 μM compound, no AGP, 1 µM): 56 ± 10%
% Inhibition of 3H-thymidine uptake, +40 mg/ml HSA (L1210 cells; 3 h): 89 ± 10%
inhibition at 1 µM (L1210 cells; [5]): 18%
inhibition at 1 µM (L1210 cells; [6]): 46 ± 8%
inhibition at 1 µM (L1210 cells; [7]): 65 ± 11%
inhibition at 10 µM (L1210 cells; [5]): 7%
inhibition at 10 µM (L1210 cells; [6]): 89 ± 14%
inhibition at 10 µM (L1210 cells; [7]): 96 ± 8%
IC50 (L1210 cells; Mus musculus, L1210, no AGP): 253 ± 75 nM
Effect of AGP on the inhibition of thymidine uptake (L1210 cells): no significant reduction
Potency as inhibitor relative to dipyridamole (L1210 cells; presence and absence of AGP, or of 40 mg/ml human serum albumin): more potent inhibitors than dipyridamole
Prevention of hypoxanthine rescue from LY309887 growth inhibition (MCF7 [3]): prevented hypoxanthine rescue
Prevention of hypoxanthine rescue from LY309887 growth inhibition (A549 [4]): prevented hypoxanthine rescue

COc1ccc(CN(C)c2nc(OCCCO)nc3c(N(C)Cc4ccc(OC)cc4)nc(OCCCO)nc23)cc1 [NU3090, 2,6-Di(3'-hydroxypropoxy)-4,8-di[(N-4'-methoxybenzylmethyl)amino]pyrimidopyrimidine]
% Reduction (of inhibition by AGP) (L1210 cells; 1 μM compound, +5 mg/ml AGP vs no AGP): 53%
% Inhibition of 3H-thymidine uptake, +5 mg/ml AGP (L1210 cells; 1 μM compound, +5 mg/ml AGP, 1 µM): 32 ± 10% and 32%
% Inhibition of 3H-thymidine uptake, No AGP (L1210 cells; 1 μM compound, no AGP, 1 µM): 74 ± 18% and 69 ± 19%
% Inhibition of 3H-thymidine uptake, No AGP (L1210 cells; 10 μM compound, no AGP): 100 ± 0%
IC50 (L1210 cells; no AGP): 220 nM and 240 nM

COCCOc1nc(N(C)Cc2ccccc2)c2nc(OCCOC)nc(N(C)Cc3ccccc3)c2n1 [NU3092, 2,6-Di(-2'-methoxyethoxy)-4,8-di[(N-benzylmethyl)amino]-pyrimidopyrimidine]
inhibition at 1 µM (L1210 cells; [7]): 17 ± 8%
inhibition at 10 µM (L1210 cells; [7]): 68 ± 8%
IC50 (L1210 cells; Mus musculus, L1210, no AGP): 5900 nM
IC50 (L1210 cells; no AGP): 3800 nM

COc1ccc(CNc2nc(OCCO)nc3c(NCc4ccc(OC)cc4)nc(OCCO)nc23)cc1 [NU3089, 2,6-Di(2'-hydroxyethoxy)-4,8-di(4'-methoxybenzylamino)pyrimidopyrimidine]
% Inhibition of 3H-thymidine uptake, No AGP (L1210 cells; 1 μM compound, no AGP, 1 µM): 24 ± 18%
inhibition at 1 µM (L1210 cells; [5]): 0%
inhibition at 1 µM (L1210 cells; [6]): 28 ± 25%
inhibition at 1 µM (L1210 cells; [7]): 40 ± 19%
inhibition at 10 µM (L1210 cells; [7]): 88 ± 11%
IC50 (L1210 cells; Mus musculus, L1210, no AGP): 670 nM
IC50 (L1210 cells; no AGP): 1200 nM

OCCN(CCO)c1nc(NCc2ccc(C(F)(F)F)cc2)c2nc(N(CCO)CCO)nc(NCc3ccc(C(F)(F)F)cc3)c2n1 [NU3079, 2,6-bis(Diethanolamino)-4,8-di[(4'-trifluoromethylbenzyl)amino]pyrimido pyrimidine]
inhibition at 1 µM (L1210 cells; [7]): 32 ± 11%
inhibition at 10 µM (L1210 cells; [7]): 60 ± 7%

COCCOc1nc(N(Cc2ccccc2)Cc2ccccc2)c2nc(OCCOC)nc(N(Cc3ccccc3)Cc3ccccc3)c2n1 [NU3094, 2,6-di(-2-methoxyethoxy)-4,8-bis(dibenzylamino) pyrimidopyrimidine]
inhibition at 1 µM (L1210 cells; [7]): 9 ± 10%
inhibition at 10 µM (L1210 cells; [7]): 15 ± 4%

CN(Cc1ccccc1)c1nc(OCCO)nc2c(N(C)Cc3ccccc3)nc(OCCO)nc12 [NU3098, 2,6-di(-2-hydroxyethoxy)-4,8-di(N-methylbenzylamino)pyrimidopyrimidine]
% Inhibition of 3H-thymidine uptake, No AGP (L1210 cells; 10 μM compound, no AGP, 10 µM): 87 ± 11%
inhibition at 1 µM (L1210 cells; [7]): 44%
IC50 (L1210 cells; no AGP): 1870 nM

COCCOc1nc(N2CCCCC2)c2nc(OCCOC)nc(N3CCCCC3)c2n1 [NU3093, 2,6-Di(-2'-methoxyethoxy)-4,8-dipiperidinopyrimidopyrimidine]
% Inhibition of 3H-thymidine uptake, No AGP (L1210 cells; 10 μM compound, no AGP, 10 µM): 68%
inhibition at 1 µM (L1210 cells; [7]): 20 ± 6%
inhibition at 10 µM (L1210 cells; [7]): 63%
IC50 (L1210 cells; Mus musculus, L1210, no AGP): 4600 nM

CC(O)COc1nc(N2CCCCC2)c2nc(OCC(C)O)nc(N3CCCCC3)c2n1 (stereo not shown) [NU3077, 2,6-Di(2'-hydroxypropoxy)-4,8-dipiperidinopyrimidopyrimidine]
% Inhibition of 3H-thymidine uptake, No AGP (L1210 cells; 1 μM compound, no AGP, 1 µM): 44 ± 8%
inhibition at 1 µM (L1210 cells; [5]): 55%
inhibition at 1 µM (L1210 cells; [6]): 20 ± 10%
inhibition at 1 µM (L1210 cells; [7]): 47 ± 8%
inhibition at 10 µM (L1210 cells; [5]): 25%
inhibition at 10 µM (L1210 cells; [6]): 69 ± 9%
inhibition at 10 µM (L1210 cells; [7]): 92 ± 10%
IC50 (L1210 cells; Mus musculus, L1210, no AGP): 900 nM
Effect of AGP on the inhibition of thymidine uptake (L1210 cells): no significant reduction
IC50 (L1210 cells; no AGP): 1130 nM

OCCN(CCO)c1nc(N2CCc3ccccc3C2)c2nc(Cl)nc(N3CCc4ccccc4C3)c2n1 [NU3082, 2-Chloro-6-diethanolamino-4,8-di-(N-1,2,3,4-tetrahydroisoguinolyl)pyrimidopyrimidine]
% Inhibition of 3H-thymidine uptake, No AGP (L1210 cells; 1 μM compound, no AGP, 1 µM): 9% and 0%
inhibition at 10 µM (L1210 cells; [7]): 22 ± 14%

CC(C)CCOc1nc(N2CCCCC2)c2nc(OCCC(C)C)nc(N3CCCCC3)c2n1 [NU3070, 2,6-Di-(3'-methylbutoxy)-4,8-dipiperidinopyrimidopyrimidine]
% Inhibition of 3H-thymidine uptake, No AGP (5% DMSO) (L1210 cells; 10 μM compound, no AGP, 5% DMSO, 10 µM): 51%
inhibition at 10 µM (L1210 cells; [8]): 46%

COCC(C)Oc1nc(N2CCCCC2)c2nc(OC(C)COC)nc(N3CCCCC3)c2n1 (stereo not shown) [NU3074, 2,6-Di(1'-methoxy-2'-methyl)ethoxy-4,8-dipiperidinopyrimidopyrimidine]
inhibition at 10 µM (L1210 cells; [7]): 62 ± 10%
inhibition at 100 µM (L1210 cells; [7]): 96 ± 7%

CC(C)COc1nc(N2CCCCC2)c2nc(OCC(C)C)nc(N3CCCCC3)c2n1 [NU3071, 2,6-Di-(2'-methylpropoxy)-4,8-dipiperidinopyrimidopyrimidine]
inhibition at 10 µM (L1210 cells; [8]): 25 ± 4%
inhibition at 100 µM (L1210 cells; [8]): 65 ± 4%

CCOC(C)(COc1nc(N2CCCCC2)c2nc(OCC(C)(OCC)OCC)nc(N3CCCCC3)c2n1)OCC [NU3065, 2,6-bis(2',2'-Diethylacetal-1-propoxy)-4,8-dipiperidinopyrimidopyrimidine]
inhibition at 1 µM (L1210 cells; [7]): 30 ± 7%
inhibition at 10 µM (L1210 cells; [7]): 65 ± 9%
inhibition at 100 µM (L1210 cells; [7]): 82 ± 16%
IC50 (L1210 cells; Mus musculus, L1210, no AGP): 4240 nM

COc1nc(N2CCCCC2)c2nc(OC)nc(N3CCCCC3)c2n1 [NU3067, 2,6-Dimethoxy-4,8-dipiperidinopyrimidopyrimidine]
% Inhibition of 3H-thymidine uptake, No AGP (5% DMSO) (L1210 cells; 50 μM compound, no AGP, 5% DMSO, 50 µM): 76%
inhibition at 10 µM (L1210 cells; [8]): 39 ± 7%
inhibition at 50 µM (L1210 cells; Mus musculus, L1210, 50 μM compound, no AGP, 5% DMSO): 81%

COc1ccc(CNc2nc(N(CCO)CCO)nc3c(NCc4ccc(OC)c(OC)c4)nc(Cl)nc23)cc1OC [NU3081, 2-chloro-6-diethanolamino-4,8-bis[(3',4'-dimethoxybenzyl)amino]pyrimidopyrimidine]
inhibition at 1 µM (L1210 cells; [7]): 59 ± 2%
inhibition at 10 µM (L1210 cells; [7]): 95 ± 9%
IC50 (L1210 cells; Mus musculus, L1210, no AGP): 710 nM
